Reference: patent US10195270B2, “Peptide/β-1,3-glucan complex and production method thereof and pharmaceutical composition containing peptide/β-1,3-glucan complex” (Japan Science and Technology Agency, priority 2014, dated 2019)

Legend:
[1] = tested on: spleen cells of mice; test: Fraction of OVA peptide-specific CD8-positive (cytolytic) T cells in spleen cells of immunised mice, flow cytometer (Examples 4 and 7); format: in vivo, mouse; conditions: Example 4, FIG. 5; spleen cells of Example 3 mice stimulated with OVA peptide-dA40(S)/SPG complex, cultured 6 days
Method: Mouse spleen cells were harvested from mice to which had been intradermally administered in Example 3 the (1) OVA peptide, (2) OVA peptide and CpG DNA, (3) OVA peptide-dA40(S)/SPG complex, or (4) OVA peptide-dA40(S)/SPG complex and CpG DNA. The harvested cells were stimulated using OVA peptide-dA40(S)/SPG complex and were cultured for 6 days. Then after antibody staining, a flow cytometer was used to evaluate the fraction of T cells that had cytotoxic specificity (CD8 positive) for OVA peptide.
The fraction of OVA peptide-specific CD8-positive T cells was low for the case (peptide) in which OVA peptide alone was administered, the case (peptide+CpG) in which OVA peptide and CpG DNA were simultaneously administered, and the case (peptide/SPG) in which OVA peptide-dA40(S)/SPG complex alone was administered.
The (1) OVA peptide, (2) OVA peptide and CpG DNA, (3) OVA peptide and CpG DNA-dA40(S)/SPG complex, or (4) OVA peptide-dA40(S)/CpG DNA-dA40(S)/SPG ternary complex prepared in Example 5 of Example 6 was intradermally administered, mouse spleen cells were harvested and stimulated using OVA peptide-dA40(S)/SPG complex, and the stimulated cells were cultured for 6 days. Then after antibody staining, a flow cytometer was used to evaluate the fraction of T cells that had cytotoxic specificity (CD8 positive) for OVA peptide.

[2] = tested on: spleen cells of mice; test: Antigenic peptide-specific IFN-γ production (ELISA) by OVA peptide-stimulated spleen cells of immunised mice (Examples 3 and 6); format: in vivo, mouse; conditions: Example 3, FIG. 4; C57BL/6 mice, intradermal once; spleen cells one week after administration, stimulated with OVA peptide 10 μg/mL, ELISA after 24 hours
Method: (1) One of the following was intradermally administered once to mice (C57BL/6 mouse, male, 7 weeks old): (1) antigenic peptide (OVA peptide, 5 μg) having an ovalbumin (OVA)-derived amino acid sequence (SEQ ID No. 1), (2) […] (5 μg) and CpG DNA (base sequence: […] (SEQ ID No. 2), 30 μg), (3) OVA peptide-dA40(S)/SPG complex (see Example 1, 5 μg), (4) OVA peptide-dA40(S)/SPG complex (prepared as in Example 1, 5 μg) and CpG DNA (30 μg), and (5) OVA peptide-dA40(S)/SPG complex (5 μg) and incomplete Freund's adjuvant (IFA). An investigation was performed to see whether antigen-specific interferon-γ (IFN-γ) was induced by, one week after administration, harvesting spleen cells from the mice, placing the cells in 96 wells (1.0×10^6 cells/well), and then stimulating the cells using OVA peptide (10 μg/mL).
Then 24 hours after stimulating the spleen cells by OVA peptide, enzyme-linked immunosorbent assay (ELISA) was used to quantitatively measure IFN-γ in the culture medium. […]
Then 24 hours after stimulating the spleen cells by OVA peptide, enzyme-linked immunosorbent assay (ELISA) was used to quantitatively measure IFN-γ in the culture medium.

SIINFEKL (SEQ ID No. 1) (listed as Homo sapiens) [OVA peptide]
fraction of OVA peptide-specific CD8-positive T cells among the spleen cells [1]: low
OVA peptide-specific interferon (IFN-γ) reaction [2]: No OVA peptide-specific interferon reaction was observed
